Measured values as given in paper PMC4684245, “Diversity of ABBA Prenyltransferases in Marine Streptomyces sp. CNQ-509: Promiscuous Enzymes for the Biosynthesis of Mixed Terpenoid Compounds” (PLoS ONE, 2015).

Experiments:
Test in all cases: HPLC-UV and LC-MS product detection
Type in all cases: biochemical
[1] = molecular target: T1, CnqP4 (Streptomyces sp. CNQ-509, UniProt A0A0F7NDN9); settings: […] aromatic substrate, […] GPP, […] MgCl2, Tris-HCl pH […] °C, […] h
T1 construct: gene AA958_24270; full-length, 303 aa; N-terminal His8 tag (pHis8) kept; E. coli Rosetta2(DE3)pLysS

[2] = molecular target: T2, CnqP6 (Streptomyces sp. CNQ-509, UniProt A0A0F7N6A5); settings: […] °C, […] h
T2 construct: gene AA958_12635; full-length, 300 aa; N-terminal His8 tag (pHis8) kept; E. coli Rosetta2(DE3)pLysS

[3] = molecular target: T3, CnqP3 (Streptomyces sp. CNQ-509, UniProt A0A0F7NDP3); settings: […] °C, […] h
T3 construct: gene AA958_24325; full-length, 305 aa; N-terminal His8 tag (pHis8) kept; E. coli Rosetta2(DE3)pLysS

[4] = […] aromatic substrate, […] GPP, […] MgCl2, Tris-HCl pH […]

T2 sequence (A0A0F7N6A5 1-300): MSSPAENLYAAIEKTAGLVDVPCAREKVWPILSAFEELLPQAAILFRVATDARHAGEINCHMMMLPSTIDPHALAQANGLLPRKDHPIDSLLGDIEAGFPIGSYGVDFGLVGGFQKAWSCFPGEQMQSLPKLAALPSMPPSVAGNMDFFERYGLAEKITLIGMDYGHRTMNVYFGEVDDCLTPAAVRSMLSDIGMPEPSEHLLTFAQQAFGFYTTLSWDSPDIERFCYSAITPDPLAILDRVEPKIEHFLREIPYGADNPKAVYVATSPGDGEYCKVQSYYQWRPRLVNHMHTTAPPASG
T3 sequence (A0A0F7NDP3 1-305): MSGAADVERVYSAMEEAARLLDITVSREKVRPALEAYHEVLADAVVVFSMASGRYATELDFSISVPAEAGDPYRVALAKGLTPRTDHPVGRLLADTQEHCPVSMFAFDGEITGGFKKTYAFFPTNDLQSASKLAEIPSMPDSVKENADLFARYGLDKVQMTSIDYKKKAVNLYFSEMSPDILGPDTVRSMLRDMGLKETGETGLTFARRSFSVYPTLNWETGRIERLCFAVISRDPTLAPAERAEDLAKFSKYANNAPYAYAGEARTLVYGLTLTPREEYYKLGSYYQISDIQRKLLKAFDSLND
T1 sequence (A0A0F7NDN9 1-303): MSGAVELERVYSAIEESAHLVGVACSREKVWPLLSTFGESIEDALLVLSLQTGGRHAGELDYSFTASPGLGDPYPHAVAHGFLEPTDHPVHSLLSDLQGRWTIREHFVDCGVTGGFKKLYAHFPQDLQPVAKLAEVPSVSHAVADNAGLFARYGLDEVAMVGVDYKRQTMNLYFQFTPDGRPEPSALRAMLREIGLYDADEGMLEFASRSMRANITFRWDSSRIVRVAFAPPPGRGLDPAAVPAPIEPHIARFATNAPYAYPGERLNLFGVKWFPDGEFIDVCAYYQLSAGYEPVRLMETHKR

Compound: Oc1ccc2ccc(O)cc2c1 [2,7-DHN]
- HPLC-UV and LC-MS product detection [1]: we found monogeranylated products for CnqP2, CnqP3 and CnqP4

Compound: CC(C)=CCC/C(C)=C/COP(=O)(O)OP(=O)(O)O [GPP]
- HPLC-UV and LC-MS product detection ([2]; with genistein ([…]), […] GPP, […] MgCl2, Tris-HCl pH […]): genistein was converted with GPP by the prenyltransferases CnqP2, CnqP3 and CnqP6
- HPLC-UV and LC-MS product detection ([3]; with flaviolin ([…]), […] GPP, […] MgCl2, Tris-HCl pH […]): Incubation with GPP resulted in the production of a new compound

Compound: O=C1C(O)=CC(=O)c2c(O)cc(O)cc21 [flaviolin]
- HPLC-UV and LC-MS product detection [3, 4]: Only CnqP3 accepted flaviolin as a substrate.

Compound: O=c1c(-c2ccc(O)cc2)coc2cc(O)cc(O)c12 [genistein]
- HPLC-UV and LC-MS product detection [2, 4]: genistein was converted with GPP by the prenyltransferases CnqP2, CnqP3 and CnqP6
